# In US20250170212A1, “COMPOSITIONS AND METHODS OF TREATING AMYOTROPHIC LATERAL SCLEROSIS (ALS) AND RELATED DISORDERS” (BIOINCEPT, LLC, priority 2022, published 2025):
# “Also recorded” adds a separate entry of the source.
# Columns and labels:
# [1] = tested on: transgenic SOD1^G93A mice; assay: Survival of ALS mice (Kaplan-Meier) after mGRPs transplantation with immunomodulatory drugs; assay type: in vivo, mouse; conditions: n=6 per group, mGRPs into cisterna magna, drug groups all with mGRPs: sPIF 1 mg/kg day -1 to 14, Tac 1 mg/kg daily to day 56, CB 25 mg/kg days 0, 2, 4, 6
# Text: B6.Cg-Tg (SOD1^G93A) 1Gur/J (Animalab, The Jackson Laboratory, Bar Harbor, ME, USA, RRID: IMSR JAX:004435) and SCID (Animalab, Charles River Laboratory, Wilmington, MA, USA, RRID: IMSR_JAX:001303) mice were obtained from JaxMice. SOD1^G93A animals were divided randomly into 5 groups and SCID animals were used as control.
# mGRP cells were received as a gift from the Department of Radiology and Radiological Science, Johns Hopkins School of Medicine (Baltimore, MD, USA). Cells were isolated as previously described from spinal cords dissected from Luc+/PLP/GFP+ mice between E12.5 and E14 stage. […] The viability of the mGRPs was assessed with trypan blue exclusion and only suspensions with over 70% of cell viability were used for transplantation. […]
# All quantifications were performed including the manual cell counts in a blinded manner. The NeuN and Ibal were counted as positive cells in the ROI (see above) as previously reported. The number of cells was determined by unbiased counting of positive cells. […] Differences between groups were analyzed using a repeated measure ANOVA model with a fixed effect for the group, of the time and a random intercept for the mouse. In a second, more explorative, approach for each group the time when the physical activity was first measured below a certain threshold was determined. […]
# [2] = tested on: transgenic SOD1^G93A mice; assay: Hanging wire test (neuromuscular strength and coordination); assay type: in vivo, mouse; conditions: weekly from day 0, drug groups with mGRPs
# Method: To assess the motor capacity of our treatment groups, motor skills assays were performed. Starting at day −7 SOD1^G93A mice (n=30) were trained in hanging wire. Animals were trained 3 times a week in 2 days interval. Weekly measurements were performed starting at day 0 until the end of the experiment. Hanging wire test was used to test neuromuscular strength and coordination. Briefly, mice were hung on a wire and had to catch the wire both by upper and lower limbs as well as tangle it with tail in order to move the whole distance towards a stick (repeated three times for each mouse and obtaining an average). Maximum points (1.5 point) were given when mice performed the task. […] A poor score (<0.66 points) was given when a mouse was unable to move the whole distance and the amount of time for which mice were able to hang on the wire (1 sec=0.016 points) was counted. […]
# All quantifications were performed including the manual cell counts in a blinded manner. The NeuN and Ibal were counted as positive cells in the ROI (see above) as previously reported. The number of cells was determined by unbiased counting of positive cells. […] Differences between groups were analyzed using a repeated measure ANOVA model with a fixed effect for the group, of the time and a random intercept for the mouse. […] The statistical significance at p<0.05 was then determined.
# [3] = tested on: experimental autoimmune encephalomyelitis; conditions: murine EAE models; cited from earlier work
sequence,measurement,setting,value
MVRIKPGSANKPSDD [sPIF],mice survival (Kaplan-Meier),[1],seemed to be superior compared to other immune modulatory drugs; also recorded: seems superior but did not reach statistical significance
same,motor performance in hanging wire test (early motor impairment),[2],significant delay of early motor impairment; also recorded: significant improvement of motor outcome
same,paralysis and myelination,[3],reverse and prevent paralysis and restore myelination
